# Data taken from patent US20110046223A1, “TREATMENT OF NEUROFIBROMATOSIS” (RAMOT AT TEL-AVIV UNIVERSITY LTD., priority 2006, published 2011).
# Tests used:
# [1] = test system: total ERK, total Akt, or total RalA; test: total ERK, total Akt, total RalA, Western immunoblotting; type: cell-based, human; details: NF-1 cell lines
# Experimental: Unless otherwise indicated, cells were lysed 48 hours after being treated with lysis buffer, as described in Haklai, et al., supra. […] Protein bands were visualized by ECL and quantified by densitometry with Image Master VDS-CL (Amersham) using TINA 2.0 software (Ray Tests). To obtain reliable comparisons between replicated experiments for statistical analysis, a standardization procedure was used, in which the density of each given protein band as recorded with its specific Ab, was normalized. […] The standard average density was defined as 1.0, and each of the individually determined bands was related to this value. […] Actin cytoskeletal elements were labeled with rhodamine-phalloidin, and digital fluorescence images were collected on a Zeiss LSM 510 confocal microscope fitted with fluorescein and rhodamine filters, as described in Gana-Weisz, M., et al., supra.
# Next, to determine whether down-regulation of active Ras by FTS was accompanied by inhibition of Ras signaling, the effect of FTS on steady-state levels of phospho-ERK, phospho-Akt, and RalA-GTP as read-outs of the three prominent Ras pathways, Ras/Raf/MEK/ERK, Ras/PI3K/Akt, and Ras/RalGEF/RalA, respectively, was examined. […]
# [2] = human, doses up to 1800 mg/day; cited from earlier work
# [3] = test system: ST88-14, 90-8, T265P21 and non-NF-1 STS26T cells; test: cell growth, photomicrographs of control and FTS-treated cells; type: cell-based, human; details: 50 μM FTS, two days
# Experimental: The human NF-1 MPNST cell lines ST88-14, T265P21 and 90-8 and the non-NF-1 human MPNST cell line STS26T were obtained from Dr. Nancy Ratner. T265P21, 90-8, and ST88-14 cells were maintained in RPMI/15% fetal calf serum (FCS) medium and STS26T cells were maintained in DMEM/10% FCS, as described in Weisz, B., et al., supra. Cells were plated at a density of 1×10^6 cells per 10-cm plate for biochemical and immunoblotting assays, 2.5×10^3 cells/well in 24-well plates for cell-growth assays, or on glass cover slips (5×10^4 cells per 35-mm dish) for labeling of actin cytoskeletal elements. The cells were incubated for 24 hours, treated with the indicated concentration of FTS or with the vehicle (0.1% DMSO) (control) for the times specified in each of the experiments, and then subjected to the various assays as described below. The effect of FTS on cell growth was estimated by direct counting of cells collected from each well, as described in Weisz, B., et al., supra.
# To determine the effects of the Ras inhibitor FTS on the growth rates of the NF-1 cell lines ST88-14, 90-8, T265P21 and the non-NF-1 STS26T cells, the cells were grown for two days in the absence and in the presence of 50 μM FTS, and then photomicrographed. […] Additionally, cells were grown for three days and then detached, collected, and counted as described in Methods to determine dose-dependent inhibition by FTS.
# ST88-14 cells = test: ST88-14 tumor growth in nude mice; type: in vivo, nude CD1-Nu male mice; details: six weeks
# Experimental: ST88-14 cells (5×10^6) in Matrigel were implanted subcutaneously (s.c.) just above the right femoral joint of nude CD1-Nu male mice (6 weeks old). Two weeks later palpable tumors were observed and the mice were separated randomly into vehicle-treated control and FTS-treated groups. Two types of treatment protocols were used. (1) The first protocol was intraperitoneal (i.p.) administration (0.1 mL) of vehicle, 1 mg/kg, 5 mg/kg or 10 mg/kg FTS (n=6 per group). The FTS solution was prepared in saline containing phosphate buffer as described in Haklai, et al., supra. (2) The second protocol was oral administration of FTS. Mice received vehicle or 20, 40, 60, or 80 mg/kg FTS (n=10 per group). The FTS mixture for oral administration was prepared in PBS/0.5% carboxymethyl cellulose. Mice were sacrificed 6 weeks after the start of the treatment, and tumors were removed and weighed. Student's t-test was used for data analysis.
# [Ozerdem, U., Angiogenesis 7:307-11 (2004)]. Thus, to determine whether FTS inhibited tumor growth in the nude mouse model, two types of treatments were preformed. The first was i.p. administration of 1, 5, or 10 mg/kg FTS, as earlier described. [Weisz, B., et al., supra.]. The second was oral administration, which required higher FTS doses of 20, 40, 60, and 80 mg/kg. Six weeks after the treatment the mice were sacrificed and tumors were removed and weighed.
smiles,measurement,setting,value
"CC(C)=CCC/C(C)=C/CC/C(C)=C/CSc1ccccc1C(=O)O [FTS, S-farnesylthiosalicylic acid]","amounts of total ERK, total Akt, or total RalA",[1],did not affect
same,dose-limiting toxicities,[2],no dose-limiting toxicities
same,cell death,[3],no significant cell death
same,cell number (photomicrographs),[3],drug-induced reduction in cell number
same,inhibition of tumor growth (tumor weight),"ST88-14 cells; i.p., 10 mg/kg FTS, P<0.05",49%
same,"tumor growth, dose dependence","ST88-14 cells; i.p., 1, 5, or 10 mg/kg FTS",dose-dependent inhibition of tumor growth
same,inhibition of tumor growth (tumor weight),"ST88-14 cells; oral, 80 mg/kg FTS, P<0.01",58%
same,"tumor growth, dose dependence","ST88-14 cells; oral, 20, 40, 60, and 80 mg/kg FTS",dose-dependent inhibition of tumor growth
